Laboratory results published in patent US11739070B2, “C5A receptor modulators” (IDORSIA PHARMACEUTICALS LTD, priority 2018, dated 2023).

target: T1, C5AR1 (Homo sapiens, UniProt P21730); assay: hC5a DISCO IC50 assay (PathHunter beta-arrestin, antagonist mode); type: cell-based; conditions: CHO-K1 C5AR1 beta-arrestin cell line; antagonist vs 1-10 nM C5a agonist; geometric mean values; read-out: C5aR IC50
T1 construct: host or cells: CHO-K1
T1 sequence (P21730 1-350): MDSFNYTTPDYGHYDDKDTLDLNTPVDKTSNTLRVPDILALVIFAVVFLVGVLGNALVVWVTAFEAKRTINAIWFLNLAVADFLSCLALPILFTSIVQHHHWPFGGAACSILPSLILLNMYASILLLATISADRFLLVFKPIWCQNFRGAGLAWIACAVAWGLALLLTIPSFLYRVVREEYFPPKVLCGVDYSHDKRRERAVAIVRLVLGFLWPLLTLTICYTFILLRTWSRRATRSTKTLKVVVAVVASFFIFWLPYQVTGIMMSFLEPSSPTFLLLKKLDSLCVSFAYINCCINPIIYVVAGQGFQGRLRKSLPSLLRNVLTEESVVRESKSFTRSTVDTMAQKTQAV
Method in brief: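 Antagonist added first, then 1-10 nM C5a agonist; cells incubated 1.5 h at 37 °C. Beta-arrestin signal developed with PathHunter detection reagent, 45 min at RT. IC50 in nmol/l from serial antagonist dilutions, reported as geometric mean of several measurements.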

| SMILES | IC50 [µM] |
| --- | --- |
| COc1cccc2c1n(Cc1ccccc1C(F)(F)F)c(=O)n2[C@@H]1CCN(c2c(C#N)c(C)nn2C)C1 [Example 87, 5-{(R)-3-[4-Methoxy-2-oxo-3-(2-trifluoromethyl-benzyl)-2,3-dihydro-benzoimidazol-1-yl]-pyrrolidin-1-yl}-1,3-dimethyl-1H-pyrazole-4-carbonitrile] | 0.629 |
| COc1cccc2c1n(Cc1ccccc1C(F)(F)F)c(=O)n2[C@@H]1CCN(c2c(F)cccc2CO)C1 [Example 88, 1-[(R)-1-(2-Fluoro-6-hydroxymethyl-phenyl)-pyrrolidin-3-yl]-4-methoxy-3-(2-trifluoromethyl-benzyl)-1,3-dihydro-benzoimidazol-2-one] | 0.039 |
| COc1cccc2c1n(Cc1ccccc1C(F)(F)F)c(=O)n2[C@@H]1CCN(c2c(F)cccc2C(C)O)C1 (stereo partly drawn) [Example 89, 1-{(R)-1-[2-Fluoro-6-(1-hydroxy-ethyl)-phenyl]-pyrrolidin-3-yl}-4-methoxy-3-(2-trifluoromethyl-benzyl)-1,3-dihydro-benzoimidazol-2-one] | 0.044 |
| COc1cccc2c1n(Cc1ccccc1C(F)(F)F)c(=O)n2[C@@H]1CCN(c2c(F)cccc2C(C)=O)C1 [Example 90, 1-[(R)-1-(2-Acetyl-6-fluoro-phenyl)-pyrrolidin-3-yl]-4-methoxy-3-(2-trifluoromethyl-benzyl)-1,3-dihydro-benzoimidazol-2-one] | 0.038 |
| COc1cccc2c1n(Cc1ccccc1C(F)(F)F)c(=O)n2[C@@H]1CCN(c2c(F)cccc2C(C)(C)O)C1 [Example 91, 1-{(R)-1-[2-Fluoro-6-(1-hydroxy-1-methyl-ethyl)-phenyl]-pyrrolidin-3-yl}-4-methoxy-3-(2-trifluoromethyl-benzyl)-1,3-dihydro-benzoimidazol-2-one] | 0.07 |
| COc1cc(Cl)nnc1Cn1c(=O)n([C@@H]2CCN(c3c(C)cccc3F)C2)c2cccc(OC)c21 [Example 92, 3-(6-Chloro-4-methoxy-pyridazin-3-ylmethyl)-1-[(R)-1-(2-fluoro-6-methyl-phenyl)-pyrrolidin-3-yl]-4-methoxy-1,3-dihydro-benzoimidazol-2-one] | 2.02 |
| Cc1cccc(C)c1N1CC[C@@H](n2c(=O)n(Cc3ccccc3C(F)(F)F)c3c(=O)[nH]ccc32)C1 [Example 93, 1-[(R)-1-(2,6-Dimethyl-phenyl)-pyrrolidin-3-yl]-3-(2-trifluoromethyl-benzyl)-3,5-dihydro-1H-imidazo[4,5-c]pyridine-2,4-dione] | 0.149 |
| COc1cccc(C)c1N1CC[C@@H](n2c(=O)n(Cc3ccccc3C(F)(F)F)c3c(=O)[nH]ccc32)C1 [Example 94, 1-[(R)-1-(2-Methoxy-6-methyl-phenyl)-pyrrolidin-3-yl]-3-(2-trifluoromethyl-benzyl)-3,5-dihydro-1H-imidazo[4,5-c]pyridine-2,4-dione] | 0.313 |
| COc1ccnnc1Cn1c(=O)n([C@@H]2CCN(c3c(C)cccc3F)C2)c2cccc(OC)c21 [Example 95, 1-[(R)-1-(2-Fluoro-6-methyl-phenyl)-pyrrolidin-3-yl]-4-methoxy-3-(4-methoxy-pyridazin-3-ylmethyl)-1,3-dihydro-benzoimidazol-2-one] | 0.191 |
| COc1cccc2c1n(Cc1nccnc1C(F)(F)F)c(=O)n2C1CCN(c2c(F)cccc2C#N)CC1 [Example 96, 3-Fluoro-2-{4-[4-methoxy-2-oxo-3-(3-trifluoromethyl-pyrazin-2-ylmethyl)-2,3-dihydro-benzoimidazol-1-yl]-piperidin-1-yl}-benzonitrile] | 0.231 |
| COc1nccnc1Cn1c(=O)n(C2CCN(c3c(F)cccc3C#N)CC2)c2cccc(OC)c21 [Example 97, 3-Fluoro-2-{4-[4-methoxy-3-(3-methoxy-pyrazin-2-ylmethyl)-2-oxo-2,3-dihydro-benzoimidazol-1-yl]-piperidin-1-yl}-benzonitrile] | 1.35 |
| COC(=O)c1cccc2c1n(Cc1ccccc1C(F)(F)F)c(=O)n2[C@@H]1CCN(c2c(F)cccc2C#N)C1 [Example 98, 1-[(R)-1-(2-Cyano-6-fluoro-phenyl)-pyrrolidin-3-yl]-2-oxo-3-(2-trifluoromethyl-benzyl)-2,3-dihydro-1H-benzoimidazole-4-carboxylic acid methyl ester] | 0.165 |
| CNC(=O)c1cccc2c1n(Cc1ccccc1C(F)(F)F)c(=O)n2[C@@H]1CCN(c2c(F)cccc2C#N)C1 [Example 99, 1-[(R)-1-(2-Cyano-6-fluoro-phenyl)-pyrrolidin-3-yl]-2-oxo-3-(2-trifluoromethyl-benzyl)-2,3-dihydro-1H-benzoimidazole-4-carboxylic acid methylamide] | 0.391 |
| N#Cc1cccc(F)c1N1CC[C@@H](n2c(=O)n(Cc3ccccc3C(F)(F)F)c3c(C(N)=O)cccc32)C1 [Example 100, 1-[(R)-1-(2-Cyano-6-fluoro-phenyl)-pyrrolidin-3-yl]-2-oxo-3-(2-trifluoromethyl-benzyl)-2,3-dihydro-1H-benzoimidazole-4-carboxylic acid amide] | 1.43 |
| CN(C)C(=O)c1cccc2c1n(Cc1ccccc1C(F)(F)F)c(=O)n2[C@@H]1CCN(c2c(F)cccc2C#N)C1 [Example 101, 1-[(R)-1-(2-Cyano-6-fluoro-phenyl)-pyrrolidin-3-yl]-2-oxo-3-(2-trifluoromethyl-benzyl)-2,3-dihydro-1H-benzoimidazole-4-carboxylic acid dimethylamide] | 1.58 |
| N#Cc1cccc(F)c1N1CC[C@@H](n2c(=O)n(Cc3ccccc3C(F)(F)F)c3c(CO)cccc32)C1 [Example 102, 3-Fluoro-2-{(R)-3-[4-hydroxymethyl-2-oxo-3-(2-trifluoromethyl-benzyl)-2,3-dihydro-benzoimidazol-1-yl]-pyrrolidin-1-yl}-benzonitrile] | 0.759 |
| CNCc1cccc(F)c1N1CC[C@@H](n2c(=O)n(Cc3ccccc3C(F)(F)F)c3c(OC)cccc32)C1 [Example 103, 1-[(R)-1-(2-Fluoro-6-methylaminomethyl-phenyl)-pyrrolidin-3-yl]-4-methoxy-3-(2-trifluoromethyl-benzyl)-1,3-dihydro-benzoimidazol-2-one] | 0.669 |
| COc1ncnc2c1n(Cc1ccccc1C(F)(F)F)c(=O)n2[C@@H]1CCN(c2c(F)cccc2C#N)C1 [Example 104, 3-Fluoro-2-{(R)-3-[6-methoxy-8-oxo-7-(2-trifluoromethyl-benzyl)-7,8-dihydro-purin-9-yl]-pyrrolidin-1-yl}-benzonitrile] | 0.863 |
| COc1ccccc1Cn1c(=O)n([C@@H]2CCN(c3c(F)cccc3C#N)C2)c2ncnc(OC)c21 [Example 105, 3-Fluoro-2-{(R)-3-[6-methoxy-7-(2-methoxy-benzyl)-8-oxo-7,8-dihydro-purin-9-yl]-pyrrolidin-1-yl}-benzonitrile] | 4.48 |
| COc1cccc2c1n(Cc1ccccc1C(F)(F)F)c(=O)n2[C@@H]1CCN(c2c(F)cccc2CN(C)C)C1 [Example 106, 1-[(R)-1-(2-Dimethylaminomethyl-6-fluoro-phenyl)-pyrrolidin-3-yl]-4-methoxy-3-(2-trifluoromethyl-benzyl)-1,3-dihydro-benzoimidazol-2-one] | 0.227 |
| COc1cccc2c1n(Cc1ccccc1C(F)(F)F)c(=O)n2[C@@H]1CCN(c2c(F)cccc2CN(C)CCO)C1 [Example 107, 1-[(R)-1-(2-Fluoro-6-{[(2-hydroxy-ethyl)-methyl-amino]-methyl}-phenyl)-pyrrolidin-3-yl]-4-methoxy-3-(2-trifluoromethyl-benzyl)-1,3-dihydro-benzoimidazol-2-one] | 1.32 |
